Measurements as given in ChEMBL document CHEMBL5247643, “Discovery and Characterization of BAY-805, a Potent and Selective Inhibitor of Ubiquitin-Specific Protease USP21” (J Med Chem, 2023).
Active and inactive are the calls of the source. The rule behind the calls is not given here.

Assays:
MOLM-13 = test: Antiproliferative activity against human MOLM-13 cells assessed as reduction in cell viability up to 30 uM incubated for 72 hrs by CellTiter-Glo luminescent assay; format: functional, cell-based
A549 = test: Antiproliferative activity against human A549 cells assessed as reduction in cell viability up to 30 uM incubated for 72 hrs by CellTiter-Glo luminescent assay; format: functional, cell-based
[1] = biological target: T1, Ubiquitin carboxyl-terminal hydrolase 4 (Homo sapiens) (UniProt Q13107); test: Inhibition of human USP4 using ubiquitin rhodamine 110 as substrate at 10 to 50 uM by fluorometric assay; conditions: dose 10-50 µM
T1 sequence (whole entry): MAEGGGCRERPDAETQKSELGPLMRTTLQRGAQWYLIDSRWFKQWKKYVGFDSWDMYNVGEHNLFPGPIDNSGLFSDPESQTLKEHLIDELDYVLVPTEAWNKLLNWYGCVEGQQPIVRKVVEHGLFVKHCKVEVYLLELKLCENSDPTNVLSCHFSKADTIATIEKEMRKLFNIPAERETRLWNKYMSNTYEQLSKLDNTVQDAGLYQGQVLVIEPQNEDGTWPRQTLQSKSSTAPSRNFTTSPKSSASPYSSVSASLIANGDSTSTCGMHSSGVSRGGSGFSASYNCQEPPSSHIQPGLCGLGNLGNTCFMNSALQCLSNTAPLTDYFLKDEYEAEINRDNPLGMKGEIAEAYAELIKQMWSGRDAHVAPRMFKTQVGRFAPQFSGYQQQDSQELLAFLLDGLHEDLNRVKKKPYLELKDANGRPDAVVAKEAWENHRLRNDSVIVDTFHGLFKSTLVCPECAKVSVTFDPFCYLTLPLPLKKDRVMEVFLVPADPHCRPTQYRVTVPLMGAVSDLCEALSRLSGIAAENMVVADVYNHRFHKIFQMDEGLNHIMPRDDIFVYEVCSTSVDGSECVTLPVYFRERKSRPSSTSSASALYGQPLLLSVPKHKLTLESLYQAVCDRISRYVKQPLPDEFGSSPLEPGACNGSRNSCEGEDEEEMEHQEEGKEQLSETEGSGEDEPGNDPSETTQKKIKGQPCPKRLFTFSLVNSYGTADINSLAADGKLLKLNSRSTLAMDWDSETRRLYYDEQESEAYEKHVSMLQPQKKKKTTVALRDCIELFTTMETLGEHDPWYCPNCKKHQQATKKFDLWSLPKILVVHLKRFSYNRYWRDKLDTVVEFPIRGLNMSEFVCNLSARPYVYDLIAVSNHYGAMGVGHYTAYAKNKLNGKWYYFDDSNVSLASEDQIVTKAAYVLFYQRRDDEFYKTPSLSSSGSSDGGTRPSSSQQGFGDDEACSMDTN

[2] = biological target: T1, Ubiquitin carboxyl-terminal hydrolase 4 (Homo sapiens); test: Inhibition of human USP4 (1 to 932 residues) expressed in Sf9 cells using ubiquitin rhodamine 110 as substrate assessed as remaining enzyme activity at 10 to 50 uM by fluorometric assay; conditions: dose 10-50 µM
[3] = biological target: T2, Ubiquitin carboxyl-terminal hydrolase 8 (Homo sapiens) (UniProt P40818); test: Inhibition of human USP8 (734 to 1110 residues) expressed in Escherichia coli BL21 (DE3) using ubiquitin rhodamine 110 as substrate assessed as remaining enzyme activity at 10 to 50 uM by fluorometric assay; conditions: dose 10-50 µM
T2 sequence (whole entry): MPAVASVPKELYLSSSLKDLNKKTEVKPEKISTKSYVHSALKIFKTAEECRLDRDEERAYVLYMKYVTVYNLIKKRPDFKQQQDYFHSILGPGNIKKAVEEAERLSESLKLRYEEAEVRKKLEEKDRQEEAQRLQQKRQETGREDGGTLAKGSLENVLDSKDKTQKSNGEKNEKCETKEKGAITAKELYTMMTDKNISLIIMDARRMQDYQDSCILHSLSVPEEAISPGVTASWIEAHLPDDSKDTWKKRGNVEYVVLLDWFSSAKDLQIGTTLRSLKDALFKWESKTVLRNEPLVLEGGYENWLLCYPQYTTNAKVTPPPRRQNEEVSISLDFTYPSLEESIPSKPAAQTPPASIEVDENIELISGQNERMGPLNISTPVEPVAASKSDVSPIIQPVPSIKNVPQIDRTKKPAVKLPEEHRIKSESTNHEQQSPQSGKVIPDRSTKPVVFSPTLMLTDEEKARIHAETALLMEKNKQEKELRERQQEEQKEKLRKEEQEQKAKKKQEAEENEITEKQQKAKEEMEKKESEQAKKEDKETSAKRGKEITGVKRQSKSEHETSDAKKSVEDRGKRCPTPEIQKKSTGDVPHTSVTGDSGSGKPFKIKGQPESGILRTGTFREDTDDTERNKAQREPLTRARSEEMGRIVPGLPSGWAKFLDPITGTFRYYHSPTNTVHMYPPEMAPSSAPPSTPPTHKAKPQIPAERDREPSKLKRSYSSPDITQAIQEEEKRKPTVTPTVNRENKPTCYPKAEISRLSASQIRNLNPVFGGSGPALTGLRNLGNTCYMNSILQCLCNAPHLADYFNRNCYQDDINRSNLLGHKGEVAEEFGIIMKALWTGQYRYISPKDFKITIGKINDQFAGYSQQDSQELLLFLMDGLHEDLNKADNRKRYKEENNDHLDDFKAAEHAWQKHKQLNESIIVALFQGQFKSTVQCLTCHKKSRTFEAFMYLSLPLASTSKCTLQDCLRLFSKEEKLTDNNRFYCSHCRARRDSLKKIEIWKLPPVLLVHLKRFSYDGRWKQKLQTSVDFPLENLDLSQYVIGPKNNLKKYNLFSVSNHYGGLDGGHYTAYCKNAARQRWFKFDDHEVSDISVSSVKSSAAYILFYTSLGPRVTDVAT

[4] = biological target: Ubiquitin carboxyl-terminal hydrolase 9X (Homo sapiens) (UniProt Q93008); test: Inhibition of human USP9X (1551 to 1970 residues) expressed in Escherichia coli BL21 (DE3) using ubiquitin rhodamine 110 as substrate assessed as remaining enzyme activity at 10 to 50 uM by fluorometric assay; conditions: dose 10-50 µM
Chain of Ubiquitin carboxyl-terminal hydrolase 9X (Homo sapiens) (Q93008 whole entry, the tested form may be a part): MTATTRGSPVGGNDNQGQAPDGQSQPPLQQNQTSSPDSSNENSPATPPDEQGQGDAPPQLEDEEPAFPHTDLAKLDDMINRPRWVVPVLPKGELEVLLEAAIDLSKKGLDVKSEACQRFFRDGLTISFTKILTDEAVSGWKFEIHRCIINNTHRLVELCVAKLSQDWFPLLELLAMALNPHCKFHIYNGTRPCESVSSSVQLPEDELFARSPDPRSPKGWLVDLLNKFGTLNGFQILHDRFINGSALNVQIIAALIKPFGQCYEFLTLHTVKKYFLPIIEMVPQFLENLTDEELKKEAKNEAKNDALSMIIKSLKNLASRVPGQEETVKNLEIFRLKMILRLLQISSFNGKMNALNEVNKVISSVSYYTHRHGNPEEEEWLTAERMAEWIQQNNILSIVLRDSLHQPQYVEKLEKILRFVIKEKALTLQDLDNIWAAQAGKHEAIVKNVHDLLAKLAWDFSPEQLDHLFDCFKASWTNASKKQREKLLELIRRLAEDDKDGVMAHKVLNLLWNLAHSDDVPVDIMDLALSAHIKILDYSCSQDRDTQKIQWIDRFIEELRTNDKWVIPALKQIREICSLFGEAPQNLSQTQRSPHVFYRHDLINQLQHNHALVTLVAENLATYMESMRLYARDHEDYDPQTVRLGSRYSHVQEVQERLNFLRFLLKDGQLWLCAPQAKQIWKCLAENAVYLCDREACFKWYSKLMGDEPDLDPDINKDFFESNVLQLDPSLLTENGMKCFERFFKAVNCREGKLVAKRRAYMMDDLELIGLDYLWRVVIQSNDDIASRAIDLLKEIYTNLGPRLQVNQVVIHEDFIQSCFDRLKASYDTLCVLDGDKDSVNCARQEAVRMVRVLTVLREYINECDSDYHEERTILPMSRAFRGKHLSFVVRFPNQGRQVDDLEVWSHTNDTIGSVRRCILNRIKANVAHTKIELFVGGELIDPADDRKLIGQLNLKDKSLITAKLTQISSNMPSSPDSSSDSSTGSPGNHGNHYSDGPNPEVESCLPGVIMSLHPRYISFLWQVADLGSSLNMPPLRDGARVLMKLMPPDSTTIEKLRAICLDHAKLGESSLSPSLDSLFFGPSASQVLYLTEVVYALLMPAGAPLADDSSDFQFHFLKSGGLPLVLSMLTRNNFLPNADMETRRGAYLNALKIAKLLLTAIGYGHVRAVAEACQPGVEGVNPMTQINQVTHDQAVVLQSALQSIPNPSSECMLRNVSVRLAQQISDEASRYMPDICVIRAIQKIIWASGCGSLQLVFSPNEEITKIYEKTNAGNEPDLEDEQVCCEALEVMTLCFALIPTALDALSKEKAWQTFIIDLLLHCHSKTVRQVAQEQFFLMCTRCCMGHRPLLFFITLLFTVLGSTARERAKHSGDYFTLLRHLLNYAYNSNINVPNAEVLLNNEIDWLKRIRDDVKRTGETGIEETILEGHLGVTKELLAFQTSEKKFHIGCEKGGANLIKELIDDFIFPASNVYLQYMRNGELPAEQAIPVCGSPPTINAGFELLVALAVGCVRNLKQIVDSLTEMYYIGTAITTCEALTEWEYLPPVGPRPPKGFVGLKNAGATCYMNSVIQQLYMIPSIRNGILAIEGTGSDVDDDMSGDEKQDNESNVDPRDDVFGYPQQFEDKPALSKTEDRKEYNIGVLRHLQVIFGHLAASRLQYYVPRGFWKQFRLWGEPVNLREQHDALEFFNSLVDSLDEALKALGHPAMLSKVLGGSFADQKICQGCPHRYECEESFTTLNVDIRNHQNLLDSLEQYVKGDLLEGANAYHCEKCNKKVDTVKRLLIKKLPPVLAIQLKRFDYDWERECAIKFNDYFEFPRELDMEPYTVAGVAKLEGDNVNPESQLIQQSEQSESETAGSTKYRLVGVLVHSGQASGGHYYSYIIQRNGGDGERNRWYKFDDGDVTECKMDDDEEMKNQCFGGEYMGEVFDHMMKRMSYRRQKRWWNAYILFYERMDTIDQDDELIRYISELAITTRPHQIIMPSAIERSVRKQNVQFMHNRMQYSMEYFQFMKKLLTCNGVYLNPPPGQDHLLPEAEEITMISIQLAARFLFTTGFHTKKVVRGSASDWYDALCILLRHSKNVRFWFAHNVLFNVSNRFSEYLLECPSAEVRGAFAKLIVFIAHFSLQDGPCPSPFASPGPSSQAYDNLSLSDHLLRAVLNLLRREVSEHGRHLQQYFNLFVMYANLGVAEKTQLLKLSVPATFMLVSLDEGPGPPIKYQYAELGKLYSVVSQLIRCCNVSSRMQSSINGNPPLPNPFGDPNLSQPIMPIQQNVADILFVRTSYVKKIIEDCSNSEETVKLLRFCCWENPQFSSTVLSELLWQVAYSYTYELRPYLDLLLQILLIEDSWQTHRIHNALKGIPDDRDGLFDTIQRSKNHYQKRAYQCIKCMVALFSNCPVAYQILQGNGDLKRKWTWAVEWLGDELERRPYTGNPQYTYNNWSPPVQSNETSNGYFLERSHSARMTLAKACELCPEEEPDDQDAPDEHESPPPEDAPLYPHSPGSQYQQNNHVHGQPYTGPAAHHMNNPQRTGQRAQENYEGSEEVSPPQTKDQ

| inhibition [1] | Activity [2] | Activity [3] | Activity [4] | Structure (SMILES) | Activity (MOLM-13) | Activity (A549) |
| --- | --- | --- | --- | --- | --- | --- |
| inactive | – | – | – | CC(C)C[C@H](NC(=O)C1(C(F)(F)F)CCCCC1)C(=O)Nc1nnc(Cc2ccc(C#N)cc2)s1 | inactive | inactive |
| – | < 50% | < 50% | < 50% | CC(NC(=O)C1CCCC1)C(=O)Nc1nnc(Cc2ccc([N+](=O)[O-])cc2)s1 (racemic) | – | – |
